Assay: refractive index (other wavelength) (dimensionless); xn = mol fraction of the nth substance listed
Settings: 101 kPa, Liquid, Standard Abbe refractometry

CC(C)OC(C)C [diisopropyl ether] + CO
refractive index
Settings | Wavelength=40.47 nm | Wavelength=435.8 nm | Wavelength=486.1 nm | Wavelength=546.1 nm | Wavelength=587.6 nm | Wavelength=589.3 nm | Wavelength=632.8 nm | Wavelength=644 nm | Wavelength=706.5 nm
308.15 K, x2 = 0 | – | 1.36739 | 1.36407 | 1.36127 | 1.36127 | 1.35983 | 1.35853 | 1.35823 | 1.35683
308.15 K, x2 = 0.0423 | – | – | 1.36395 | 1.36116 | 1.35972 | 1.35967 | 1.35842 | 1.35813 | 1.35672
308.15 K, x2 = 0.0424 | – | 1.36729 | 1.36404 | 1.36107 | 1.35977 | 1.35973 | 1.35859 | 1.35825 | 1.35677
308.15 K, x2 = 0.082 | – | 1.36727 | 1.36394 | 1.36114 | 1.35971 | 1.35966 | 1.35842 | 1.35812 | 1.35671
308.15 K, x2 = 0.0822 | 1.37037 | 1.36742 | 1.36409 | 1.3613 | 1.35986 | 1.3598 | 1.35855 | 1.35825 | 1.35685
308.15 K, x2 = 0.1171 | 1.37018 | 1.36725 | 1.36394 | 1.36113 | 1.3597 | 1.35965 | 1.35843 | 1.35814 | 1.35672
308.15 K, x2 = 0.1271 | 1.37021 | 1.36728 | 1.36394 | 1.36115 | 1.35972 | 1.35966 | 1.35843 | 1.35813 | 1.35672
308.15 K, x2 = 0.1827 | 1.36993 | 1.367 | 1.36368 | 1.3609 | 1.35947 | 1.35942 | 1.35818 | 1.35788 | 1.35648
308.15 K, x2 = 0.2162 | 1.36973 | 1.36681 | 1.36351 | 1.36071 | 1.35928 | 1.35923 | 1.35801 | 1.35771 | 1.35631
308.15 K, x2 = 0.251 | 1.36934 | 1.36642 | 1.36312 | 1.36037 | 1.35892 | 1.35889 | 1.35764 | 1.35735 | 1.35595
308.15 K, x2 = 0.3298 | 1.36925 | 1.36633 | 1.36304 | 1.36029 | 1.35886 | 1.35881 | 1.35757 | 1.35728 | 1.35588
308.15 K, x2 = 0.3577 | 1.36902 | 1.36611 | 1.36275 | 1.36006 | 1.35865 | 1.35856 | 1.35731 | 1.35703 | 1.35565
308.15 K, x2 = 0.4497 | 1.36699 | 1.36412 | 1.36085 | 1.35815 | 1.35673 | 1.35668 | 1.35545 | 1.35516 | 1.35375
308.15 K, x2 = 0.4525 | 1.36743 | 1.36455 | 1.36128 | 1.35854 | 1.35714 | 1.35709 | 1.35586 | 1.35557 | 1.35416
308.15 K, x2 = 0.522 | 1.36511 | 1.3623 | 1.35907 | 1.35635 | 1.35495 | 1.3549 | 1.3537 | 1.35341 | 1.35202
308.15 K, x2 = 0.5543 | 1.36433 | 1.36152 | 1.35831 | 1.35561 | 1.35422 | 1.35417 | 1.35297 | 1.35268 | 1.35129
308.15 K, x2 = 0.609 | 1.36183 | 1.35906 | 1.35589 | 1.35321 | 1.35182 | 1.35177 | 1.35057 | 1.35028 | 1.34894
308.15 K, x2 = 0.6529 | 1.36027 | 1.35752 | 1.35437 | 1.35171 | 1.35032 | 1.35027 | 1.34908 | 1.34881 | 1.34745
308.15 K, x2 = 0.7504 | 1.35626 | 1.35356 | 1.35046 | 1.34787 | 1.34649 | 1.34644 | 1.34527 | 1.345 | 1.34368
308.15 K, x2 = 0.804 | 1.35193 | 1.34931 | 1.34626 | 1.34371 | 1.34236 | 1.34231 | 1.34115 | 1.34088 | 1.33959
308.15 K, x2 = 0.807 | 1.3517 | 1.34907 | 1.34606 | 1.3435 | 1.34213 | 1.34208 | 1.34093 | 1.34066 | 1.33939
308.15 K, x2 = 0.8727 | 1.34787 | 1.3453 | 1.34228 | 1.33978 | 1.33843 | 1.33838 | 1.33724 | 1.33698 | 1.33572
308.15 K, x2 = 0.9233 | 1.33956 | 1.33712 | 1.33421 | 1.33175 | 1.33046 | 1.33042 | 1.32933 | 1.32908 | 1.32789
308.15 K, x2 = 0.9253 | 1.34157 | 1.33909 | 1.33616 | 1.33368 | 1.33239 | 1.33234 | 1.33125 | 1.331 | 1.32976
308.15 K, x2 = 0.9527 | 1.33839 | 1.33598 | 1.33306 | 1.33062 | 1.32932 | 1.32928 | 1.32818 | 1.32794 | 1.32672
308.15 K, x2 = 0.9773 | 1.33485 | 1.3325 | 1.3296 | 1.32717 | 1.32591 | 1.32586 | 1.32479 | 1.32455 | 1.32336
308.15 K, x2 = 0.989 | 1.33356 | 1.33124 | 1.32836 | 1.32594 | 1.32469 | 1.32465 | 1.32358 | 1.32334 | 1.32216
308.15 K, x2 = 0.9964 | 1.33249 | 1.33018 | 1.32731 | 1.32489 | 1.32366 | 1.32361 | 1.32256 | 1.32232 | 1.32114
313.15 K, x2 = 0 | 1.3674 | 1.36447 | 1.36119 | 1.35842 | 1.357 | – | – | – | –
313.15 K, x2 = 0.0423 | 1.36734 | 1.36444 | 1.36111 | 1.35837 | 1.35693 | – | – | – | –
313.15 K, x2 = 0.0424 | 1.3674 | 1.36447 | 1.36115 | 1.35839 | 1.35696 | – | – | – | –
313.15 K, x2 = 0.082 | 1.36731 | 1.3644 | 1.36108 | 1.35823 | 1.35691 | – | – | – | –
313.15 K, x2 = 0.0822 | 1.3675 | 1.36459 | 1.36126 | 1.35853 | 1.3571 | – | – | – | –
313.15 K, x2 = 0.1171 | 1.36734 | 1.36445 | 1.36113 | 1.35838 | 1.35696 | – | – | – | –
313.15 K, x2 = 0.1271 | 1.36736 | 1.36445 | 1.36113 | 1.35841 | 1.35696 | – | – | – | –
313.15 K, x2 = 0.1827 | 1.36712 | 1.36423 | 1.36091 | 1.35818 | 1.35676 | – | – | – | –
313.15 K, x2 = 0.2162 | 1.36696 | 1.36405 | 1.36077 | 1.35802 | 1.35661 | – | – | – | –
313.15 K, x2 = 0.251 | 1.36648 | 1.36361 | 1.36031 | 1.35759 | 1.35617 | – | – | – | –
313.15 K, x2 = 0.3298 | 1.36657 | 1.36371 | 1.36044 | 1.3577 | 1.35627 | – | – | – | –
313.15 K, x2 = 0.3577 | 1.36568 | 1.36268 | 1.35958 | 1.35686 | 1.35545 | – | – | – | –
313.15 K, x2 = 0.4497 | 1.36434 | 1.36152 | 1.3583 | 1.35561 | 1.35419 | – | – | – | –
313.15 K, x2 = 0.4525 | 1.36476 | 1.36193 | 1.35868 | 1.35599 | 1.35459 | – | – | – | –
313.15 K, x2 = 0.522 | 1.36255 | 1.35976 | 1.35655 | 1.35386 | 1.35246 | – | – | – | –
313.15 K, x2 = 0.5543 | 1.36165 | 1.35887 | 1.35569 | 1.353 | – | – | – | – | –
313.15 K, x2 = 0.609 | 1.35929 | 1.35654 | 1.3534 | 1.35074 | – | – | – | – | –
313.15 K, x2 = 0.6529 | 1.35769 | 1.35496 | 1.35191 | 1.34921 | – | – | – | – | –
313.15 K, x2 = 0.7504 | 1.35369 | 1.35104 | 1.34795 | 1.34538 | – | – | – | – | –
313.15 K, x2 = 0.804 | 1.34918 | 1.34656 | 1.34353 | 1.341 | – | – | – | – | –
313.15 K, x2 = 0.807 | 1.34928 | 1.34668 | 1.34363 | 1.34112 | – | – | – | – | –
313.15 K, x2 = 0.8727 | 1.3456 | 1.34306 | 1.34009 | 1.33757 | – | – | – | – | –
313.15 K, x2 = 0.9233 | 1.33747 | 1.33508 | 1.33213 | 1.3297 | – | – | – | – | –
313.15 K, x2 = 0.9253 | 1.33918 | 1.33674 | 1.3338 | 1.33136 | – | – | – | – | –
313.15 K, x2 = 0.9527 | 1.33616 | 1.33377 | 1.33085 | 1.32843 | – | – | – | – | –
313.15 K, x2 = 0.9773 | 1.33271 | 1.3304 | 1.32749 | 1.32509 | – | – | – | – | –
313.15 K, x2 = 0.989 | 1.33146 | 1.32916 | 1.32628 | 1.32387 | – | – | – | – | –
313.15 K, x2 = 0.9964 | 1.33048 | 1.3282 | 1.32531 | 1.32292 | – | – | – | – | –

From the NIST ThermoML archive (doi:10.1016/j.fluid.2014.09.014)
